Source: PubChem BioAssay (NCI)
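Following 48 hours of exposure in 96-well plates, responses at five concentrations were used to interpolate endpoints linearly. At the TGI there is no net growth.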

Assays:
Assay in all cases: inhibition of tumour cell growth, NCI panel, 48 h
[1] = tested on: A498 renal
[2] = tested on: BT-549 breast
[3] = tested on: IGROV1 ovarian
[4] = tested on: MCF7 breast
[5] = tested on: MDA-MB-231 breast
[6] = tested on: MDA-MB-435
[7] = tested on: NCI-H226 lung
[8] = tested on: NCI-H23 lung
[9] = tested on: NCI/ADR-RES ovarian
[10] = tested on: OVCAR-3 ovarian
[11] = tested on: OVCAR-4 ovarian
[12] = tested on: OVCAR-8 ovarian
[13] = tested on: SF-539 CNS
[14] = tested on: SK-MEL-28 melanoma
[15] = tested on: SN12C renal
[16] = tested on: SNB-75 CNS
[17] = tested on: T-47D breast
[18] = tested on: TK-10 renal
[19] = tested on: U251 CNS
[20] = tested on: UACC-62 melanoma

For CCOC(=O)c1c(NS(=O)(=O)c2ccc(Br)cc2)sc2c1CCCC2, the TGI [1] was 42.2 µM, the TGI [2] was 19.4 µM and the TGI [3] was 8.79 µM. For the same compound, the TGI [4] was > 62.9 µM, the TGI [5] was 16.1 µM and the TGI [6] was 49.1 µM. For the same compound, the TGI [7] was 9.91 µM, the TGI [8] was 18.7 µM and the TGI [9] was 3.72 µM. The TGI [10] was 9.9 µM, the TGI [11] was > 100 µM and the TGI [12] was 15.3 µM. It also gave a TGI [13] of 19.8 µM, a TGI [14] of 32.6 µM and a TGI [15] of 12.1 µM. For the same compound, the TGI [16] was 12.4 µM, the TGI [17] was 14.5 µM and the TGI [18] was 31.9 µM. It also gave a TGI [19] of 25.4 µM and a TGI [20] of 17.7 µM.
O=C(c1ccsc1)c1cc2c(s1)C(=O)c1ccsc1C2=O was tested, and the TGI [1] was 2.94 µM, the TGI [2] was 0.198 µM and the TGI [3] was 0.403 µM. The TGI [4] was 0.383 µM, the TGI [5] was 0.496 µM and the TGI [6] was 0.0696 µM. It also gave a TGI [7] of 1.11 µM, a TGI [8] of 0.308 µM and a TGI [9] of 0.407 µM. The TGI [10] was 0.392 µM, the TGI [11] was 0.335 µM and the TGI [12] was 0.424 µM. The TGI [13] was 0.138 µM, the TGI [14] was 0.305 µM and the TGI [15] was 0.125 µM. For the same compound, the TGI [16] was 0.311 µM, the TGI [17] was 0.675 µM and the TGI [18] was 1.25 µM. For the same compound, the TGI [19] was 0.34 µM and the TGI [20] was 0.385 µM.
Cn1ccnc1SC(F)(F)c1nc2ccccc2o1 was tested, and the TGI [1] was > 100 µM, the TGI [2] was > 100 µM and the TGI [3] was > 100 µM. The TGI [4] was > 100 µM, the TGI [5] was > 100 µM and the TGI [6] was > 100 µM. For the same compound, the TGI [7] was > 100 µM, the TGI [8] was > 100 µM and the TGI [9] was > 100 µM. For the same compound, the TGI [10] was > 100 µM, the TGI [11] was > 100 µM and the TGI [12] was > 100 µM. The TGI [13] was > 100 µM, the TGI [14] was > 100 µM and the TGI [15] was > 100 µM. The TGI [16] was > 100 µM, the TGI [17] was > 100 µM and the TGI [18] was > 100 µM. For the same compound, the TGI [19] was > 100 µM and the TGI [20] was > 100 µM.
With COc1ccc(Cc2cc(OC)c(OC)c(OC)c2)cc1O the TGI [1] was 76.8 µM, the TGI [2] was > 100 µM and the TGI [3] was > 100 µM. The TGI [4] was > 100 µM, the TGI [5] was > 100 µM and the TGI [6] was > 100 µM. For the same compound, the TGI [7] was 99.4 µM, the TGI [8] was > 100 µM and the TGI [9] was > 100 µM. The TGI [10] was > 100 µM, the TGI [11] was > 100 µM and the TGI [12] was > 100 µM. For the same compound, the TGI [13] was 0.041 µM, the TGI [14] was > 100 µM and the TGI [15] was > 100 µM. The TGI [16] was > 100 µM, the TGI [17] was > 100 µM and the TGI [18] was > 100 µM. The TGI [19] was > 22.7 µM and the TGI [20] was > 73.2 µM.
For O=[N+]([O-])c1ccccc1S(=O)(=O)c1ccccc1[N+](=O)[O-], the TGI [1] was > 100 µM, the TGI [2] was > 100 µM and the TGI [3] was > 100 µM. For the same compound, the TGI [4] was > 100 µM, the TGI [5] was > 100 µM and the TGI [6] was > 100 µM. For the same compound, the TGI [7] was > 100 µM, the TGI [8] was > 100 µM and the TGI [9] was > 100 µM. The TGI [10] was > 100 µM, the TGI [11] was > 100 µM and the TGI [12] was > 56.2 µM. The TGI [13] was > 96.8 µM, the TGI [14] was > 100 µM and the TGI [15] was > 100 µM. The TGI [16] was 43.1 µM, the TGI [17] was > 100 µM and the TGI [18] was > 56.2 µM. For the same compound, the TGI [19] was 66.5 µM and the TGI [20] was > 100 µM.
In the case of CCOC(=O)c1ccc(-c2cccs2)n1C, the TGI [1] is reported as > 100 µM, the TGI [2] is reported as > 100 µM and the TGI [3] is reported as > 100 µM. For the same compound, the TGI [4] was > 100 µM, the TGI [5] was > 100 µM and the TGI [6] was > 100 µM. The TGI [7] was > 100 µM, the TGI [8] was > 100 µM and the TGI [9] was > 100 µM. The TGI [10] was > 100 µM, the TGI [11] was > 100 µM and the TGI [12] was > 100 µM. The TGI [13] was > 100 µM, the TGI [14] was > 100 µM and the TGI [15] was > 100 µM. For the same compound, the TGI [16] was > 100 µM, the TGI [17] was > 92.4 µM and the TGI [18] was > 100 µM. The TGI [19] was > 100 µM and the TGI [20] was > 100 µM.
